Values quoted from earlier work, collected in patent US10434198B2, “Radiopharmaceutical solutions with advantageous properties” (Sciencons AS, priority 2015, dated 2019).

Columns and labels:
MDA-MB-231 (SA) = settings: 250 kBq/kg (3.6×10^11 ^223Ra atoms), Suominen et al. 2013
[1] = 10 minutes after injection

SMILES | survival advantage (MDA-MB-231 (SA)) [%] | reduction of radium in blood [1] [%]
[Cl][223Ra][Cl] [^223Ra, radium-223 dichloride] | 43 | –
[Ra] [radium] | – | 88
